# From patent US6441162B2, “Crystalline substance of cefditoren pivoxyl and the production of the same” (Meiji Seika Kaisha, Ltd., priority 1996, dated 2002)
# Assay: Thermal stability on storage in sealed dry containers, residual Cefditoren pivoxyl by liquid chromatography
# Type: physicochemical
# Conditions: sealed dry container; for Residual quantity (%) of Cefditoren pivoxyl upon storage at 60° C., Initial content (at 0 day): initial content assumed to be 100%
# Source text: In order to test the thermal stability on storage of the new crystalline substance of Cefditoren pivoxyl according to this invention, in comparison with the known, amorphous form of Cefditoren pivoxyl, there were employed a sample of the crystalline Cefditoren pivoxyl which was produced in Example 1 given hereinafter, as well as a sample of the amorphous Cefditoren pivoxyl which was produced by admixing a solution of amorphous Cefditoren pivoxyl in methanol with an aqueous iso-propanol to precipitate an amorphous powder of this compound and separating and drying this powder under a reduced pressure. These samples were separately placed in sealed dry containers and were stored for 1 month, for 2 months and for 4 months at 60° C. and at 40° C., respectively. After these storages, the samples were analysed by a liquid chromatographic method and percentages of the residual quantity of Cefditoren pivoxyl remaining in the stored samples were evaluated from the area under the absorption peak which was shown in the chromatogramms obtained. It is assumed that the initial content of Cefditoren pivoxyl in the test samples was 100% at the starting of the storages.
SMILES,"Residual quantity (%) of Cefditoren pivoxyl upon storage at 60° C., After 1 month [%]","Residual quantity (%) of Cefditoren pivoxyl upon storage at 60° C., After 2 months [%]","Residual quantity (%) of Cefditoren pivoxyl upon storage at 60° C., Initial content (at 0 day) [%]","Residual quantity of Cefditoren pivoxyl after the 4-month storage at 40° C. (40° C., 4 months) [%]","Residual quantity (%) of Cefditoren pivoxyl upon storage at 60° C., After 2 months (listed as crystalline substance of Cefditoren pivoxyl) [%]"
"CO/N=C(\C(=O)NC1C(=O)N2C(C(=O)OCOC(=O)C(C)(C)C)=C(/C=C\c3scnc3C)CS[C@H]12)c1csc(N)n1 (some centres unmarked) [Amorphous substance, 7-[(Z)-2-(2-aminothiazol-4-yl)-2-methoxyiminoacetamido]-3-[(Z)-2-(4-methylthiazol-5-yl)ethenyl]-3-cephem-4-carboxylic acid pivaloyloxymethyl ester, reference compound]",93,88,100,–,–
"CO/N=C(\C(=O)NC1C(=O)N2C(C(=O)OCOC(=O)C(C)(C)C)=C(/C=C\c3scnc3C)CS[C@H]12)c1csc(N)n1 (some centres unmarked) [Crystalline substance, 7-[(Z)-2-(2-aminothiazol-4-yl)-2-methoxyiminoacetamido]-3-[(Z)-2-(4-methylthiazol-5-yl)ethenyl]-3-cephem-4-carboxylic acid pivaloyloxymethyl ester]",99,99,100,99,99
